Experimental data: paper PMC6017957, “Synthesis, Anti-Proliferative Activity Evaluation and 3D-QSAR Study of Naphthoquinone Derivatives as Potential Anti-Colorectal Cancer Agents” (Molecules : A Journal of Synthetic Chemistry and Natural …, 2018)
Read-outs that look alike come from different tables or passages of the source.

Legend:
[1] = system: HT-29 colorectal cancer cells; test: MTT anti-proliferative assay against HT-29 cells; format: cell-based, human; settings: for IC50: Homo sapiens; for Cytotoxic activity category against HT-29: classified by HT-29 IC50; for Selectivity Index: SI = IC50Fibroblast/IC50HT-29cells
Method: (§1) The toxicity of the thirty-six compounds was determined in vitro by means of the MTT assay. Doxorubicin, a drug widely used to treat different types of cancer, was employed as a positive control, whereas the solvent (DMSO) was used as negative control.
(§2) Test compounds were dissolved in DMSO to obtain stock solutions that were maintained as small aliquots at −20 °C. At time of drug addition, an aliquot was thawed and diluted to obtain the desired final maximum test concentration of 100 μM, with complete medium. The final percentage of DMSO in the wells was less than 1% (v/v). […] Anti-Proliferative Assay
(§3) Doxorubicin, a drug widely used to treat different types of cancer, was used as a positive control. After 48 h, the medium was removed and cells were incubated with MTT solution (0.25 mg/mL). Four hours later, the medium was carefully aspired and formazan crystals were dissolved in DMSO (100 μL). The OD550 was measured using a plate reader (Multiskan Go, Thermo Scientific, Waltham, MA, USA). […] The selectivity index (SI), was calculated as a ratio of IC50Fibroblast/IC50HT-29cells.
(§4) The results are expressed as the mean of triplicate measurements in at least two independent experiments.

[2] = system: fibroblasts PCS-201-012; test: MTT cytotoxicity assay against normal dermal fibroblasts; format: cell-based; settings: Fibroblast, value with 95% confidence interval, read-out: PCS-201-012 IC50 μM (95% CI)
Method: as §1, §2, §3, §4

[3] = HT-29, 48 h, MTT, 48 h, 0–100 µM, value with 95% confidence interval, read-out: HT-29 IC50 μM (95% CI)
[4] = HT-29, −logIC50 against HT-29, CoMFA training and test sets, read-out: pIC50 Experimental (converted)

SMILES | IC50 [1, 3] [µM] | IC50 [1, 4] [µM] | Cytotoxic activity category against HT-29 [1] | melting point [°C] | IC50 [2] [µM] | Selectivity Index [1]
CCc1cc2c([nH]1)C(=O)c1ccccc1C2=O [Compound 2c, 2-Ethyl-1H-benzo[f]indole-4,9-dione] | 40.2 | 40.2 | moderately active (moderately active (20 µM < IC50 ≤ 100 µM)) | 200 to 207 | 79.4 | 
CC1(C)OC2=C(C(=O)C(=O)c3ccccc32)C1(C)C [Compound 4s, 2,2,3,3-Tetramethyl-2,3-dihydronaphtho[1,2-b]furan-4,5-dione] | 18.1 | 18.1 |  | 91 | 19.9 | 1.10
C=C(C)C1(C)CC2=C(O1)c1ccccc1C(=O)C2=O (stereo not shown) [Compound 4p, 2-Methyl-2-(prop-1-en-2-yl)-2,3-dihydronaphtho[1,2-b]furan-4,5-dione] | 28.1 |  |  | 147 | 4.19 | 0.15
CCCCc1cc2c(o1)-c1ccccc1C(=O)C2=O [Compound 4i, 2-Butylnaphtho[1,2-b]furan-4,5-dione] | 9.16 | 9.16 | highly active | 64 | 3.86 | 0.42
COC1(C(C)=O)CC2=C(O1)C(=O)c1ccccc1C2=O (stereo not shown) [Compound 4l, 2-Acetyl-2-methoxy-2,3-dihydronaphtho[2,3-b]furan-4,9-dione] | 34.9 |  |  | 145 | 12.9 | 0.37
C=CC1(C)CC2=C(O1)c1ccccc1C(=O)C2=O (stereo not shown) [Compound 4t, 2-Ethenyl-2-methyl-2,3-dihydronaphtho[1,2-b]furan-4,5-dione] | 88.1 |  |  | 150 | 19.7 | 0.22
O=C1c2ccccc2C(=O)c2occc21 [Compound 4j, Naphtho[2,3-b]furan-4,9-dione] | 8.2 | 8.2 | highly active | 229.4 | 8.28 | 1.01
